{"source": "PubChem BioAssay (NCI)", "experiment_in_all_cases": "NCI anticancer screen, dose series, 48 h", "key": {"SK-MEL-5 melanoma": {"tested_on": "SK-MEL-5 melanoma"}, "HOP-92 NSCLC": {"tested_on": "HOP-92 NSCLC"}, "SK-OV-3 ovarian": {"tested_on": "SK-OV-3 ovarian"}, "M14 melanoma": {"tested_on": "M14 melanoma"}, "IGROV1 ovarian": {"tested_on": "IGROV1 ovarian"}, "HCT-116 colon": {"tested_on": "HCT-116 colon"}, "ACHN renal": {"tested_on": "ACHN renal"}, "MCF7 breast": {"tested_on": "MCF7 breast"}, "NCI/ADR-RES ovarian": {"tested_on": "NCI/ADR-RES ovarian"}, "SN12C renal": {"tested_on": "SN12C renal"}, "OVCAR-5 ovarian": {"tested_on": "OVCAR-5 ovarian"}, "HS 578T breast": {"tested_on": "HS 578T breast"}, "HCT-15 colon": {"tested_on": "HCT-15 colon"}, "CAKI-1 renal": {"tested_on": "CAKI-1 renal"}, "TK-10 renal": {"tested_on": "TK-10 renal"}, "RXF 393 renal": {"tested_on": "RXF 393 renal"}, "HCC-2998 colon": {"tested_on": "HCC-2998 colon"}, "SK-MEL-2 melanoma": {"tested_on": "SK-MEL-2 melanoma"}, "UO-31 renal": {"tested_on": "UO-31 renal"}, "T-47D breast": {"tested_on": "T-47D breast"}, "SNB-75 CNS": {"tested_on": "SNB-75 CNS"}, "SF-295 CNS": {"tested_on": "SF-295 CNS"}, "SW-620 colon": {"tested_on": "SW-620 colon"}, "MOLT-4 leukemia": {"tested_on": "MOLT-4 leukemia"}, "NCI-H522 lung": {"tested_on": "NCI-H522 lung"}, "786-0 renal": {"tested_on": "786-0 renal"}, "SK-MEL-28 melanoma": {"tested_on": "SK-MEL-28 melanoma"}, "COLO 205 colon": {"tested_on": "COLO 205 colon"}, "HL-60(TB) leukemia": {"tested_on": "HL-60(TB) leukemia"}}, "note": "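The compound was tested at five concentrations on cells cultured in 96-well plates, with a 48-hour exposure period. Here, GI50 denotes the concentration required for 50% inhibition of growth. TGI: total growth inhibition.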", "data": [{"molecule": "CC1=C[C@H]2c3c(c(O)c(O)c4oc(-c5ccccc5)cc(=O)c34)[C@H](c3cc(O)c(O)c4oc(-c5ccccc5)cc(=O)c34)[C@H]2C(C)(C)C1", "values": [{"measurement": "TGI", "setting": "SK-MEL-5 melanoma", "value": 2160, "unit": "nM"}, {"measurement": "GI50", "setting": "HOP-92 NSCLC", "value": 1360, "unit": "nM"}, {"measurement": "TGI", "setting": "HOP-92 NSCLC", "value": 5840, "unit": "nM"}, {"measurement": "GI50", "setting": "SK-OV-3 ovarian", "value": 1760, "unit": "nM"}, {"measurement": "TGI", "setting": "SK-OV-3 ovarian", "value": 10900, "unit": "nM"}, {"measurement": "GI50", "setting": "M14 melanoma", "value": 887, "unit": "nM"}, {"measurement": "TGI", "setting": "M14 melanoma", "value": 4880, "unit": "nM"}, {"measurement": "GI50", "setting": "IGROV1 ovarian", "value": 486, "unit": "nM"}, {"measurement": "TGI", "setting": "IGROV1 ovarian", "value": 7510, "unit": "nM"}, {"measurement": "GI50", "setting": "HCT-116 colon", "value": 272, "unit": "nM"}, {"measurement": "TGI", "setting": "HCT-116 colon", "value": 1450, "unit": "nM"}, {"measurement": "GI50", "setting": "ACHN renal", "value": 679, "unit": "nM"}, {"measurement": "TGI", "setting": "ACHN renal", "value": 5670, "unit": "nM"}, {"measurement": "GI50", "setting": "MCF7 breast", "value": 597, "unit": "nM"}, {"measurement": "TGI", "setting": "MCF7 breast", "value": 9160, "unit": "nM"}, {"measurement": "GI50", "setting": "NCI/ADR-RES ovarian", "value": 3550, "unit": "nM"}, {"measurement": "TGI", "setting": "NCI/ADR-RES ovarian", "value": 25300, "unit": "nM"}, {"measurement": "GI50", "setting": "SN12C renal", "value": 1090, "unit": "nM"}, {"measurement": "TGI", "setting": "SN12C renal", "value": 7310, "unit": "nM"}, {"measurement": "GI50", "setting": "OVCAR-5 ovarian", "value": 3220, "unit": "nM"}, {"measurement": "TGI", "setting": "OVCAR-5 ovarian", "value": 13000, "unit": "nM"}, {"measurement": "GI50", "setting": "HS 578T breast", "value": 412, "unit": "nM"}, {"measurement": "TGI", "setting": "HS 578T breast", "value": 10200, "unit": "nM"}, {"measurement": "GI50", "setting": "HCT-15 colon", "value": 1820, "unit": "nM"}, {"measurement": "TGI", "setting": "HCT-15 colon", "value": 10400, "unit": "nM"}, {"measurement": "GI50", "setting": "CAKI-1 renal", "value": 621, "unit": "nM"}, {"measurement": "TGI", "setting": "CAKI-1 renal", "value": 4570, "unit": "nM"}, {"measurement": "GI50", "setting": "TK-10 renal", "value": 1570, "unit": "nM"}, {"measurement": "TGI", "setting": "TK-10 renal", "value": 31000, "unit": "nM"}, {"measurement": "GI50", "setting": "RXF 393 renal", "value": 245, "unit": "nM"}, {"measurement": "TGI", "setting": "RXF 393 renal", "value": 1860, "unit": "nM"}, {"measurement": "GI50", "setting": "HCC-2998 colon", "value": 1560, "unit": "nM"}, {"measurement": "TGI", "setting": "HCC-2998 colon", "value": 4650, "unit": "nM"}, {"measurement": "GI50", "setting": "SK-MEL-2 melanoma", "value": 1770, "unit": "nM"}, {"measurement": "TGI", "setting": "SK-MEL-2 melanoma", "value": 9610, "unit": "nM"}, {"measurement": "GI50", "setting": "UO-31 renal", "value": 527, "unit": "nM"}, {"measurement": "TGI", "setting": "UO-31 renal", "value": 2000, "unit": "nM"}, {"measurement": "GI50", "setting": "T-47D breast", "value": 1020, "unit": "nM"}, {"measurement": "TGI", "setting": "T-47D breast", "value": 17100, "unit": "nM"}, {"measurement": "GI50", "setting": "SNB-75 CNS", "value": 286, "unit": "nM"}, {"measurement": "TGI", "setting": "SNB-75 CNS", "value": 5760, "unit": "nM"}, {"measurement": "GI50", "setting": "SF-295 CNS", "value": 312, "unit": "nM"}, {"measurement": "TGI", "setting": "SF-295 CNS", "value": 1760, "unit": "nM"}, {"measurement": "GI50", "setting": "SW-620 colon", "value": 934, "unit": "nM"}, {"measurement": "TGI", "setting": "SW-620 colon", "value": 13900, "unit": "nM"}, {"measurement": "GI50", "setting": "MOLT-4 leukemia", "value": 988, "unit": "nM"}, {"measurement": "TGI", "setting": "MOLT-4 leukemia", "value": "> 75000", "unit": "nM"}, {"measurement": "GI50", "setting": "NCI-H522 lung", "value": 1770, "unit": "nM"}, {"measurement": "TGI", "setting": "NCI-H522 lung", "value": 6230, "unit": "nM"}, {"measurement": "GI50", "setting": "786-0 renal", "value": 1710, "unit": "nM"}, {"measurement": "TGI", "setting": "786-0 renal", "value": 7830, "unit": "nM"}, {"measurement": "GI50", "setting": "SK-MEL-28 melanoma", "value": 1120, "unit": "nM"}, {"measurement": "TGI", "setting": "SK-MEL-28 melanoma", "value": 9510, "unit": "nM"}, {"measurement": "GI50", "setting": "COLO 205 colon", "value": 1480, "unit": "nM"}, {"measurement": "TGI", "setting": "COLO 205 colon", "value": 11600, "unit": "nM"}, {"measurement": "GI50", "setting": "HL-60(TB) leukemia", "value": 2330, "unit": "nM"}, {"measurement": "TGI", "setting": "HL-60(TB) leukemia", "value": 7330, "unit": "nM"}]}]}
